{"source": "patent US10568961B2", "about": "“Photosensitising composition and its uses” (DENTSPLY SIRONA Inc., priority 2008, dated 2020)", "format_in_all_cases": "cell-based, Enterococcus faecalis", "key": {"[1]": {"system": "E. faecalis biofilms grown on a glass cover slip", "assay": "Structural damage to biofilm by PDT in vitro (CLSM, live/dead stain)", "details": "seven-day biofilm, 664 nm, 31.84 J/cm^2", "experimental": "The structural damage to biofilm caused by PDT was assessed on E. faecalis biofilms grown on a glass cover slip that was fixed covering a grove (6 mm diameter) made at the bottom part of a petri dish. E. faecalis cell suspension (100 μL containing ˜10^7 cells/mL) prepared from overnight grown culture in All-Culture (AC) media was added onto the saliva-coated glass-cover slip. Six petri dishes containing the biofilm were tested in each group. After seven days of incubation with periodical replacement of growth media, the biofilm was washed and photosensitised with either 100 μM MB in water or PF4 (MB in an emulsion produced by mixing perfluorodecahydro naphthalene:H2O2:triton-X100 in the ratio 75:24.5:0.5). These biofilms were incubated in the dark for ten minutes, after which the excess of the photosensitising formulation was partially replaced with perfluorodecahydro naphthalene and exposed to irradiation using 664 nm diode laser with a total fluence of 31.84 J/cm^2.\nAfter the PDT, the washed biofilms were stained using 20 μL PBS containing 2 μL of live/dead stain (Molecular Probes, Eugene, Oreg., USA) and were observed using confocal laser scanning microscopy (CLSM). […] The optical sections of the biofilm structure were recorded and analyzed by using FluoView software (Olympus Corporation, Tokyo, Japan)."}, "[2]": {"system": "E. faecalis biofilm in root canals", "assay": "PDT of endodontic bacterial biofilm ex vivo (ten-week biofilm in tooth specimens)", "experimental": "Thirty tooth blocks were prepared by removing the crown at the level of cementoenamel junction and the apical third of the root canal (˜8 mm long). All specimens were instrumented using K-files with sizes from #20 to #40. The smear layer formed during mechanical shaping was removed by rinsing the root canal with sodium hypochlorite (1%) followed by EDTA (100 mM). The prepared single-rooted tooth specimens were incubated with 50 mL of AC media inoculated with a single colony of E. faecalis as described elsewhere (George S and Kishen A, J Biomed Opt, 2000). Incubation was carried out for ten weeks at 37° C. with periodical replacement of growth media under constant shaking (120 rpm). After the incubation period, the tooth specimens were randomly divided into five groups and were treated as follows:\nGroup 2—Root canal-treatment (RCT) group (n=5): root canals were subjected to conventional cleaning and shaping procedures performed by using a sequence of endodontic file sizes (#25 to #50 K-files; Maillefer Instruments SA, Switzerland). The root canals were repeatedly irrigated with 5 mL of 5.2% sodium hypochlorite before and after instrumentation step using a 28-G needle and a syringe. Ethylenediaminetetraacetic acid (EDTA) 17% was also used at the end of instrumentation to remove the smear layer. Group 3—Conventional PDT group (n=5): root canals were subjected to minimal instrumentation (using #25 K file). These root canals were filled with 100 μM MB in water and were irradiated with 664 nm laser light with a total energy of 31.84 J/cm^2. Group 4—PF4 group (n=5): root canals were subjected to minimal instrumentation (using #25 K file) followed by PDT using PF4. Here, the root canals were filled with PF4 and were left in the dark for 10 minutes. After the sensitization period, the excess of the photosensitizing formulation was partially replaced with perfluorodecahydro naphthalene and the root canals were irradiated with 664 nm diode laser with a total fluence of 31.84 J/cm^2. Group 5—RCT+PF4 group (n=5): root canals were subjected to the conventional root canal disinfection procedure similar to the conventional RCT group (i.e. Group 2) followed by PDT using PF4.\nAfter the specified treatment, the tooth-specimens were split open mesiodistally, and dentine shavings were collected using a round bur of 1 mm diameter held perpendicular to the root canal surface. The dentine shavings were collected at midpoint (coronoapically) from the two halves (buccal and lingual) of each root (n=12). […] Colony-forming units (CFU) were enumerated on the subsequent day, and the mean value of log10 number of bacteria and the standard error were calculated. […] The numbers of tubes positive for bacterial cells were counted against the total number of tubes."}, "[3]": {"system": "E. faecalis bacteria (ATCC 29212) biofilm", "assay": "Disinfection of four-week old biofilm in root canal (CFU from dentine shavings)", "excerpt": "The institutional review board of the National University of Singapore approved the collection and use of extracted human teeth for this experiment. Thirty single rooted teeth maintained in Phosphate Buffer Saline (PBS) with similar shape and sizes were selected for the following experiment. The crown (at the level of Cemento-Enamel Junction) and the […] of the root were removed using a microslice machine (Metal Research, England) to obtain standard sized specimens of 8 mm length. The prepared tooth specimens were selected for the experiments after inspecting for any signs of cracks or damages on the cementum. The remnants of the pulp tissue were removed from the root canal using a barbed broach and the tooth specimens were autoclaved before further experiments.\nA single colony of E. faecalis bacteria (ATCC 29212) culture was incubated in All Culture Broth (AC Broth) for 8 hours. The optical density of the culture was adjusted to 1 at 600 nm that corresponds to 10^9 cells/mL. The sterilized tooth specimens were placed in the AC broth (50 mL) with the bacterial culture and incubated in an orbital incubator (120 rpm) at 37° C. under aerobic conditions. The culture medium was replenished once in every two days to remove dead cells and to ensure proper growth of bacteria. After four weeks of incubation, the tooth specimens were subjected to the following experiment.\nThis experiment was conducted to observe the efficiency of different antimicrobial treatments on a matured root canal biofilm. After the specific incubation period, the tooth specimens were removed and washed with sterile PBS. The specimens were randomly divided into five experimental groups and treated accordingly.\nGroup 2 (conventional PDT): The tooth specimens in this group were subjected to conventional PDT. The root canals of the specimens were filled with 100 μM of MB (photosensitization) for 20 minutes and was irradiated immediately with 660 nm laser light for 20 minutes to attain a total energy level of 36 J (n=6). […]"}, "[4]": {"details": "after 4 hours of enrichment, compared with the control group"}}, "data": [{"smiles": "CN(C)c1ccc2nc3ccc(=[N+](C)C)cc-3sc2c1", "note": "[MB in water, Methylene blue]", "values": [{"measurement": "viability of biofilm bacteria after PDT", "setting": "[1]; live/dead stain", "result": "increased the proportion of dead cells"}, {"measurement": "biofilm thickness after PDT", "setting": "[1]; untreated biofilm 17 μm", "result": 12, "unit": "μm"}, {"measurement": "difference in the mean viable count", "setting": "[2]; [4]", "result": 1.5, "unit": "log10"}, {"measurement": "reduction in viable bacteria", "setting": "[2]; [4]", "result": 96.89, "unit": "%"}, {"measurement": "% of tooth specimens positive for bacteria after 24 hours of enrichment", "setting": "[2]; ten-week biofilm, dentine shavings", "result": 100, "unit": "%"}, {"measurement": "CFU (log10) after 4 hours of enrichments (±SD)", "setting": "[2]; ten-week biofilm, dentine shavings, control group 7.147", "result": "5.639 (±0.066) log10"}, {"measurement": "inactivation of bacteria", "setting": "[3]", "result": "failed to show significant bacterial reduction"}, {"measurement": "difference in bacterial count", "setting": "[3]; compared to control group", "result": 0.38, "unit": "log10"}, {"measurement": "bacterial kill", "setting": "[3]; corresponds to log10 difference vs control group", "result": 59, "unit": "%"}]}]}
